Source: paper PMC3443238, “Synthesis and Antiangiogenic Activity of N-Alkylated Levamisole Derivatives” (PLoS ONE, 2012)
Structures can show the parent of a compound that is named as a salt.

Key:
[1] = biological target: T1, bovine kidney tissue non-specific alkaline phosphatase (TNAP) (Bos taurus, UniProt P09487); assay: Alkaline phosphatase assay (p-nitrophenyl phosphate), bovine kidney enzyme; format: biochemical
T1 construct: alkaline phosphatase (0.01 U/mL) from human placenta or bovine kidneys; from tissue; host or cells: bovine kidneys
T1 sequence (P09487 18-499 limits assumed): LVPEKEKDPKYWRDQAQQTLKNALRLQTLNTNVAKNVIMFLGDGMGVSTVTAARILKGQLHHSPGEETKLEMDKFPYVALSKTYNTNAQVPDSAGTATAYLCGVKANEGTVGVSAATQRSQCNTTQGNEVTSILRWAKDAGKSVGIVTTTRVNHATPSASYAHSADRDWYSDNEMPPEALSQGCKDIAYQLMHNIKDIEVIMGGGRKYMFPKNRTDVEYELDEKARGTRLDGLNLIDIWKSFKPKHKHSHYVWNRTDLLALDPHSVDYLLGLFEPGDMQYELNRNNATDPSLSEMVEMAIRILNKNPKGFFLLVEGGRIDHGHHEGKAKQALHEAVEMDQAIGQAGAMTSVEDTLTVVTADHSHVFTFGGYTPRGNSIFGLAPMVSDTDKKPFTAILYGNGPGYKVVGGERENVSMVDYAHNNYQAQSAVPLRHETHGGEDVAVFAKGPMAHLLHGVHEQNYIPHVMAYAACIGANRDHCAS
Experimental: (§1) The levamisole derivatives were diluted to 2.5, 5 and 10 mM in DMSO. Samples (10 µL) and 90 µL solution of alkaline phosphatase (0.01 U/mL) from human placenta or bovine kidneys diluted in substrate buffer were added to a 96-well microtiter plate and incubated for 35 minutes at room temperature. Hereafter, 100 µL p-nitrophenyl phosphate (2 mg/mL) were added, and the plate was read at 405 nm with background subtraction at 650 nm on a Versamax Elisa reader (Molecular Devices, Sunnyvale, CA, USA) after 24 and 35 min. Results were obtained as the mean of double determinations. The EC50 values were read from the curve at half maximal absorbance.

[2] = biological target: T2, human placenta alkaline phosphatase (HPAP) (Homo sapiens, UniProt P05187); assay: Alkaline phosphatase assay (p-nitrophenyl phosphate), human placenta enzyme; format: biochemical
T2 construct: alkaline phosphatase (0.01 U/mL) from human placenta or bovine kidneys; from tissue; host or cells: human placenta
Experimental: as §1

[3] = test system: human umbilical vein endothelial cells (HUVECs) in co-culture with normal human dermal fibroblasts (NHDF); assay: in vitro angiogenesis assay, HUVEC-NHDF co-culture, CD31 immunostaining; format: cell-based; details: 1 mM
Experimental: The antiangiogenic effects of the compounds were determined in a previously developed assay, designed to evaluate the growth and differentiation of human umbilical vein endothelial cells (HUVECs) in co-culture with normal human dermal fibroblasts (NHDF). […] The cluster morphology known from (S)-levamisole, was also observed for tetramisole (2) (Figure 5B and Table 1), p-bromolevamisole (3) (Figure 5C and Table 1), and N-methyllevamisoles (7a, b), with the latter mentioned showing a slightly more pronounced effect (Figure 5E and F, Figure 6 A–D, Table 1). […] Compound 4 (Figure 5D and Table 1), on the other hand, inhibited the capillary network formation to give small cords exclusively, which is reminiscent of the effect of suramin (5) (Figure 5N and Table 1), another well-known angiogenesis inhibitor [44], [51].
Co-culture cell assays were performed according to a method described previously, [44]. Briefly, 10^3 NHDFs were cultured in each well of a 96-well microtiter plate in NHDF standard medium (100 μL, FGM-2 Bullet kit) at 37°C in an atmosphere containing 5% CO2. After 3 days the medium was removed and 10^3 HUVECs were seeded onto the NHDF in TFSM2 medium (135 μL). The samples of the individual compounds were prepared by weight and dissolved in a concentration of […] in DMSO, PBS, or Milli-Q water followed by pH adjustment, and sterile filtration through 0.22 μm filters. Medium, buffer controls or test samples of 15 µL were added to each well containing the HUVEC–NHDF co-culture and were incubated for 3 days. Experiments were repeated 2–4 times with identical results.
HUVEC and fibroblasts were stained with a CD31 antibody according to the method previously described, [44]. Briefly, the cells were washed with PBS, fixed with ethanol, blocked with TTN buffer, incubated with mouse anti-human CD31 diluted 1∶250 in TTN buffer, washed in TTN buffer and incubated with alkaline phosphatase-conjugated goat anti-mouse IgG diluted 1∶1000 in TTN buffer. Bound antibody was subsequently visualised with BCIP/NBT and inspected in an Olympus IX70 microscope and photographed with an Olympus DP12 digital camera (Magnification: 40x). Image analysis was carried out using the program AnalySIS (Soft Imaging Systems, Münster, Germany).

[4] = test system: tumor growth; details: 12 mg/kg in nude mice; cited from earlier work

T2 sequence (P05187 23-506 limits assumed): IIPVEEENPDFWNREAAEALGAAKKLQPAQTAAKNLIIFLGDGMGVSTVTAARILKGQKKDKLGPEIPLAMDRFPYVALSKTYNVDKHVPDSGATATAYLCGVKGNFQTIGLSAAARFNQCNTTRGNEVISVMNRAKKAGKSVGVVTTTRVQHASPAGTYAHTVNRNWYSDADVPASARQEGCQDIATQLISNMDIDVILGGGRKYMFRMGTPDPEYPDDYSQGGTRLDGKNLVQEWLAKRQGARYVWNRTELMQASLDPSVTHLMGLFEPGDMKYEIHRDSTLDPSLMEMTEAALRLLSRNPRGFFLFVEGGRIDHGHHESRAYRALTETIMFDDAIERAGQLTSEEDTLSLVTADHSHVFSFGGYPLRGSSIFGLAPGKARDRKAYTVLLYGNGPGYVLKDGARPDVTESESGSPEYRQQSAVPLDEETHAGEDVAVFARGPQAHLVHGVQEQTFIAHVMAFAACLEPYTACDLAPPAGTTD

c1ccc([C@H]2CN3CCSC3=N2)cc1 [Compound 1, (S)-levamisole hydrochloride, reference compound]
IC50 [1]: 600 µM
IC50 [2]: 1100 µM
Grading [3]: ++ (clusters with area >4%)
Morphology [3]: Clusters
Area % (percent of the area covered by HUVEC as observed by CD31 staining) ([3]; medium control 10.2, DMSO 8.4): 7.5%
tumor growth inhibition [4]: significant tumor growth inhibition
